{"source": "PubChem BioAssay AID2060500", "about": "(Molecular Pharmacology Branch, DTP, NCI, 2025);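 further: spheroids exposed to drugs for 7 days before viability reading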;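 on viability, T/C: 100% = DMSO vehicle control viability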", "test_system": "596521-263-R-J1-PDC complex spheroids, viability % of control", "assay": "Anticancer human tumor 596521-263-R-J1-PDC patient-derived soft tissue sarcoma cell line growth inhibition [GQUAD]", "conditions": "for IC50: curve of first compound; for viability, T/C: stronger effect = lower value", "how_it_was_run": "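Tumor cells were grown as complex spheroids with HUVEC endothelial cells and mesenchymal stem cells as stroma. G-quadruplex stabilizers were combined with targeted agents over half-log dilutions from near the clinical Cmax, or from 10 microM.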", "key": {"[1]": {"conditions": "second compound 0.0316 µM, first compound 0.0316 µM"}, "[2]": {"conditions": "second compound 0.0316 µM, first compound 0.316 µM"}, "[3]": {"conditions": "second compound 0.1 µM, first compound 0.0316 µM"}, "[4]": {"conditions": "second compound 0.1 µM, first compound 0.316 µM"}, "[5]": {"conditions": "second compound 0.316 µM, first compound 0.0316 µM"}, "[6]": {"conditions": "second compound 0.316 µM, first compound 0.316 µM"}, "[7]": {"conditions": "second compound 1 µM, first compound 0.0316 µM"}, "[8]": {"conditions": "second compound 1 µM, first compound 0.316 µM"}, "[9]": {"conditions": "second compound 3.16 µM, first compound 0.0316 µM"}, "[10]": {"conditions": "second compound 3.16 µM, first compound 0.316 µM"}, "[11]": {"conditions": "second compound 10 µM, first compound 0.0316 µM"}, "[12]": {"conditions": "second compound 10 µM, first compound 0.316 µM"}}, "data": [{"smiles": "CCc1c2c(nc3ccc(O)cc13)-c1cc3c(c(=O)n1C2)COC(=O)[C@]3(O)CC", "note": "+ Cc1[nH]c2ccc(F)cc2c1-c1nc2c3cccnc3c3ncccc3c2[nH]1", "values": [{"measurement": "IC50", "setting": "second compound 0.0316 µM", "result": 6.02, "unit": "nM"}, {"measurement": "IC50", "setting": "second compound 0.1 µM", "result": 7.91, "unit": "nM"}, {"measurement": "IC50", "setting": "second compound 0.316 µM", "result": 5.32, "unit": "nM"}, {"measurement": "IC50", "setting": "second compound 1 µM", "result": 8.42, "unit": "nM"}, {"measurement": "IC50", "setting": "second compound 3.16 µM", "result": 4.26, "unit": "nM"}, {"measurement": "IC50", "setting": "second compound 10 µM", "result": 8.37, "unit": "nM"}, {"measurement": "viability, T/C", "setting": "second compound 0.0316 µM, first compound 0.000999 µM", "result": 65.8, "unit": "%"}, {"measurement": "viability, T/C", "setting": "second compound 0.0316 µM, first compound 0.00316 µM", "result": 54.8, "unit": "%"}, {"measurement": "viability, T/C", "setting": "second compound 0.0316 µM, first compound 0.00999 µM", "result": 45.7, "unit": "%"}, {"measurement": "viability, T/C", "setting": "[1]", "result": 34.3, "unit": "%"}, {"measurement": "viability, T/C", "setting": "second compound 0.0316 µM, first compound 0.0999 µM", "result": 19.2, "unit": "%"}, {"measurement": "viability, T/C", "setting": "[2]", "result": 9.24, "unit": "%"}, {"measurement": "viability, T/C", "setting": "second compound 0.1 µM, first compound 0.000999 µM", "result": 57.3, "unit": "%"}, {"measurement": "viability, T/C", "setting": "second compound 0.1 µM, first compound 0.00316 µM", "result": 61.5, "unit": "%"}, {"measurement": "viability, T/C", "setting": "second compound 0.1 µM, first compound 0.00999 µM", "result": 47.4, "unit": "%"}, {"measurement": "viability, T/C", "setting": "[3]", "result": 31.1, "unit": "%"}, {"measurement": "viability, T/C", "setting": "second compound 0.1 µM, first compound 0.0999 µM", "result": 21.5, "unit": "%"}, {"measurement": "viability, T/C", "setting": "[4]", "result": 7.09, "unit": "%"}, {"measurement": "viability, T/C", "setting": "second compound 0.316 µM, first compound 0.000999 µM", "result": 71.4, "unit": "%"}, {"measurement": "viability, T/C", "setting": "second compound 0.316 µM, first compound 0.00316 µM", "result": 54.4, "unit": "%"}, {"measurement": "viability, T/C", "setting": "second compound 0.316 µM, first compound 0.00999 µM", "result": 44, "unit": "%"}, {"measurement": "viability, T/C", "setting": "[5]", "result": 30.1, "unit": "%"}, {"measurement": "viability, T/C", "setting": "second compound 0.316 µM, first compound 0.0999 µM", "result": 16.1, "unit": "%"}, {"measurement": "viability, T/C", "setting": "[6]", "result": 9.37, "unit": "%"}, {"measurement": "viability, T/C", "setting": "second compound 1 µM, first compound 0.000999 µM", "result": 67, "unit": "%"}, {"measurement": "viability, T/C", "setting": "second compound 1 µM, first compound 0.00316 µM", "result": 58.4, "unit": "%"}, {"measurement": "viability, T/C", "setting": "second compound 1 µM, first compound 0.00999 µM", "result": 50.3, "unit": "%"}, {"measurement": "viability, T/C", "setting": "[7]", "result": 29.6, "unit": "%"}, {"measurement": "viability, T/C", "setting": "second compound 1 µM, first compound 0.0999 µM", "result": 17.5, "unit": "%"}, {"measurement": "viability, T/C", "setting": "[8]", "result": 7.61, "unit": "%"}, {"measurement": "viability, T/C", "setting": "second compound 3.16 µM, first compound 0.000999 µM", "result": 61.8, "unit": "%"}, {"measurement": "viability, T/C", "setting": "second compound 3.16 µM, first compound 0.00316 µM", "result": 52.3, "unit": "%"}, {"measurement": "viability, T/C", "setting": "second compound 3.16 µM, first compound 0.00999 µM", "result": 42.1, "unit": "%"}, {"measurement": "viability, T/C", "setting": "[9]", "result": 31.3, "unit": "%"}, {"measurement": "viability, T/C", "setting": "second compound 3.16 µM, first compound 0.0999 µM", "result": 18.8, "unit": "%"}, {"measurement": "viability, T/C", "setting": "[10]", "result": 8.52, "unit": "%"}, {"measurement": "viability, T/C", "setting": "second compound 10 µM, first compound 0.000999 µM", "result": 56.8, "unit": "%"}, {"measurement": "viability, T/C", "setting": "second compound 10 µM, first compound 0.00316 µM", "result": 59.2, "unit": "%"}, {"measurement": "viability, T/C", "setting": "second compound 10 µM, first compound 0.00999 µM", "result": 48.6, "unit": "%"}, {"measurement": "viability, T/C", "setting": "[11]", "result": 29.9, "unit": "%"}, {"measurement": "viability, T/C", "setting": "second compound 10 µM, first compound 0.0999 µM", "result": 17, "unit": "%"}, {"measurement": "viability, T/C", "setting": "[12]", "result": 8.36, "unit": "%"}]}, {"smiles": "O=c1[nH]cc(F)c(=O)[nH]1", "note": "+ Cc1[nH]c2ccc(F)cc2c1-c1nc2c3cccnc3c3ncccc3c2[nH]1", "values": [{"measurement": "IC50", "setting": "second compound 0.0316 µM", "result": "> 10000", "unit": "nM"}, {"measurement": "IC50", "setting": "second compound 0.1 µM", "result": "> 10000", "unit": "nM"}, {"measurement": "IC50", "setting": "second compound 0.316 µM", "result": "> 10000", "unit": "nM"}, {"measurement": "IC50", "setting": "second compound 1 µM", "result": "> 10000", "unit": "nM"}, {"measurement": "IC50", "setting": "second compound 3.16 µM", "result": "> 10000", "unit": "nM"}, {"measurement": "IC50", "setting": "second compound 10 µM", "result": "> 10000", "unit": "nM"}, {"measurement": "viability, T/C", "setting": "[1]", "result": 98.4, "unit": "%"}, {"measurement": "viability, T/C", "setting": "second compound 0.0316 µM, first compound 0.1 µM", "result": 105, "unit": "%"}, {"measurement": "viability, T/C", "setting": "[2]", "result": 100, "unit": "%"}, {"measurement": "viability, T/C", "setting": "second compound 0.0316 µM, first compound 1 µM", "result": 101, "unit": "%"}, {"measurement": "viability, T/C", "setting": "second compound 0.0316 µM, first compound 3.16 µM", "result": 101, "unit": "%"}, {"measurement": "viability, T/C", "setting": "second compound 0.0316 µM, first compound 10 µM", "result": 98.3, "unit": "%"}, {"measurement": "viability, T/C", "setting": "[3]", "result": 100, "unit": "%"}, {"measurement": "viability, T/C", "setting": "second compound 0.1 µM, first compound 0.1 µM", "result": 101, "unit": "%"}, {"measurement": "viability, T/C", "setting": "[4]", "result": 101, "unit": "%"}, {"measurement": "viability, T/C", "setting": "second compound 0.1 µM, first compound 1 µM", "result": 105, "unit": "%"}, {"measurement": "viability, T/C", "setting": "second compound 0.1 µM, first compound 3.16 µM", "result": 94.9, "unit": "%"}, {"measurement": "viability, T/C", "setting": "second compound 0.1 µM, first compound 10 µM", "result": 95.1, "unit": "%"}, {"measurement": "viability, T/C", "setting": "[5]", "result": 90.8, "unit": "%"}, {"measurement": "viability, T/C", "setting": "second compound 0.316 µM, first compound 0.1 µM", "result": 104, "unit": "%"}, {"measurement": "viability, T/C", "setting": "[6]", "result": 106, "unit": "%"}, {"measurement": "viability, T/C", "setting": "second compound 0.316 µM, first compound 1 µM", "result": 113, "unit": "%"}, {"measurement": "viability, T/C", "setting": "second compound 0.316 µM, first compound 3.16 µM", "result": 118, "unit": "%"}, {"measurement": "viability, T/C", "setting": "second compound 0.316 µM, first compound 10 µM", "result": 81.8, "unit": "%"}, {"measurement": "viability, T/C", "setting": "[7]", "result": 100, "unit": "%"}, {"measurement": "viability, T/C", "setting": "second compound 1 µM, first compound 0.1 µM", "result": 96.6, "unit": "%"}, {"measurement": "viability, T/C", "setting": "[8]", "result": 100, "unit": "%"}, {"measurement": "viability, T/C", "setting": "second compound 1 µM, first compound 1 µM", "result": 88.9, "unit": "%"}, {"measurement": "viability, T/C", "setting": "second compound 1 µM, first compound 3.16 µM", "result": 93.9, "unit": "%"}, {"measurement": "viability, T/C", "setting": "second compound 1 µM, first compound 10 µM", "result": 86.6, "unit": "%"}, {"measurement": "viability, T/C", "setting": "[9]", "result": 96, "unit": "%"}, {"measurement": "viability, T/C", "setting": "second compound 3.16 µM, first compound 0.1 µM", "result": 95.4, "unit": "%"}, {"measurement": "viability, T/C", "setting": "[10]", "result": 88.5, "unit": "%"}, {"measurement": "viability, T/C", "setting": "second compound 3.16 µM, first compound 1 µM", "result": 86.7, "unit": "%"}, {"measurement": "viability, T/C", "setting": "second compound 3.16 µM, first compound 3.16 µM", "result": 89.1, "unit": "%"}, {"measurement": "viability, T/C", "setting": "second compound 3.16 µM, first compound 10 µM", "result": 82.4, "unit": "%"}, {"measurement": "viability, T/C", "setting": "[11]", "result": 63.3, "unit": "%"}, {"measurement": "viability, T/C", "setting": "second compound 10 µM, first compound 0.1 µM", "result": 70.6, "unit": "%"}, {"measurement": "viability, T/C", "setting": "[12]", "result": 80.7, "unit": "%"}, {"measurement": "viability, T/C", "setting": "second compound 10 µM, first compound 1 µM", "result": 77.5, "unit": "%"}, {"measurement": "viability, T/C", "setting": "second compound 10 µM, first compound 3.16 µM", "result": 76.4, "unit": "%"}, {"measurement": "viability, T/C", "setting": "second compound 10 µM, first compound 10 µM", "result": 72.4, "unit": "%"}]}]}
